Results published in US20210274823A1, “NOVEL TRITERPENE-GLYCOSIDES AS SWEETENERS OR SWEETENER ENHANCER” (priority 2017, published 2021).

Assay: Organoleptic test of the compounds of formula (I) against sucrose
Parameters: key to sweetness compared to sucrose: 3: sweeter than the control solution; 2: sweetness comparable with the control solution; 1: less sweet than the control solution but still sweet
Conditions: panel of 3-4 panelists; for sweetness compared to sucrose: test compound dissolved in water (Evian) at 400 ppm, control sucrose 20 g/l; for Comment (taste impression): test compound dissolved in water at 400 ppm
Description: The isolated pure compounds were dissolved in non-carbonated mineral water (“Evian”) in a concentration of 0.4 mg/ml (400 ppm). The sweet taste of each sample was compared by a panel of 3-4 panelists with a solution of sucrose in a concentration of 20 g/l.

Compound	sweetness compared to sucrose	Comment (taste impression)
CC(C)(/C=C/C[C@@](C)(O[C@@H]1O[C@H](CO)[C@@H](O)[C@H](O)[C@H]1O)[C@H]1CC[C@]2(C)[C@@H]1[C@H](O)C[C@@H]1[C@@]3(C)C[C@@H](O)[C@H](O[C@@H]4O[C@H](CO)[C@@H](O)[C@H](O)[C@H]4O[C@@H]4O[C@H](CO)[C@@H](O)[C@H](O)[C@H]4O)C(C)(C)[C@@H]3CC[C@]12C)OO (stereo in doubt) [Compound E]	3	
CC(C)=CCC[C@](C)(O[C@@H]1O[C@H](CO[C@@H]2OC[C@@H](O)[C@H](O)[C@H]2O)[C@@H](O)[C@H](O)[C@H]1O)[C@H]1CC[C@]2(C)[C@@H]1[C@H](O)CC1[C@@]3(C)C[C@@H](O)[C@H](O[C@@H]4O[C@H](CO)[C@@H](O)[C@H](O)[C@H]4O[C@@H]4O[C@H](CO)[C@@H](O)[C@H](O)[C@H]4O)C(C)(C)C3CC[C@]12C (stereo partly drawn) [Compound A]	2	Slightly hot
CC(C)=CCC[C@](C)(O[C@@H]1O[C@H](CO)[C@@H](O)[C@H](O)[C@H]1O)[C@H]1CC[C@]2(C)[C@@H]1[C@H](O)CC1[C@@]3(C)C[C@@H](O)[C@H](O[C@@H]4O[C@H](CO)[C@@H](O)[C@H](O)[C@H]4O[C@@H]4O[C@H](CO)[C@@H](O)[C@H](O)[C@H]4O)C(C)(C)C3CC[C@]12C (stereo partly drawn) [Compound B]	3	Slightly bitter
C=C(C)C(CC[C@](C)(O[C@@H]1O[C@H](CO[C@@H]2OC[C@@H](O)[C@H](O)[C@H]2O)[C@@H](O)[C@H](O)[C@H]1O)[C@H]1CC[C@]2(C)[C@@H]1[C@H](O)CC1[C@@]3(C)C[C@@H](O)[C@H](O[C@@H]4O[C@H](CO)[C@@H](O)[C@H](O)[C@H]4O[C@@H]4O[C@H](CO)[C@@H](O)[C@H](O)[C@H]4O)C(C)(C)C3CC[C@]12C)OO (stereo partly drawn) [Compound C]	2	
CC(C)(O)/C=C/C[C@](C)(O[C@@H]1O[C@H](CO)[C@@H](O)[C@H](O)[C@H]1O)[C@H]1CC[C@]2(C)C1[C@H](O)CC1[C@@]3(C)C[C@@H](O)[C@H](O[C@@H]4O[C@H](CO)[C@@H](O)[C@H](O)[C@H]4O[C@@H]4O[C@H](CO)[C@@H](O)[C@H](O)[C@H]4O)C(C)(C)C3CC[C@]12C (stereo partly drawn) [Compound D]	3	
CC(C)(/C=C/C[C@](C)(O[C@@H]1O[C@H](CO[C@@H]2OC[C@@H](O)[C@H](O)[C@H]2O)[C@@H](O)[C@H](O)[C@H]1O)[C@H]1CC[C@]2(C)C1[C@H](O)CC1[C@@]3(C)C[C@@H](O)[C@H](O[C@@H]4O[C@H](CO)[C@@H](O)[C@H](O)[C@H]4O[C@@H]4O[C@H](CO)[C@@H](O)[C@H](O)[C@H]4O)C(C)(C)C3CC[C@]12C)OO (stereo partly drawn) [Compound G]	2	Slightly bitter
CC(C)=CCC[C@](C)(O[C@@H]1O[C@H](CO)[C@@H](O)[C@H](O)[C@H]1O)[C@H]1CC[C@]2(C)[C@@H]1[C@H](O)CC1[C@@]3(C)C[C@@H](O)[C@H](O[C@@H]4O[C@H](COC5OCC(O)C(O)C5O)[C@@H](O)[C@H](O)[C@H]4O[C@@H]4O[C@H](CO)[C@@H](O)[C@H](O)[C@H]4O)C(C)(C)C3CC[C@]12C (stereo partly drawn) [Compound H]	3	Slightly bitter
C=C(C)C(O)CC[C@](C)(O[C@@H]1O[C@H](CO[C@@H]2OC[C@@H](O)[C@H](O)[C@H]2O)[C@@H](O)[C@H](O)[C@H]1O)[C@H]1CC[C@]2(C)[C@@H]1[C@H](O)CC1[C@@]3(C)C[C@@H](O)[C@H](O[C@@H]4O[C@H](CO)[C@@H](O)[C@H](O)[C@H]4O[C@@H]4O[C@H](CO)[C@@H](O)[C@H](O)[C@H]4O)C(C)(C)C3CC[C@]12C (stereo partly drawn) [Compound I]	2	
CC1(C)C2CC[C@]3(C)C(C[C@@H](O)[C@@H]4[C@@H]([C@](C)(CCCO)O[C@@H]5O[C@H](CO)[C@@H](O)[C@H](O)[C@H]5O)CC[C@]43C)[C@@]2(C)C[C@@H](O)[C@@H]1O[C@@H]1O[C@H](CO)[C@@H](O)[C@H](O)[C@H]1O[C@@H]1O[C@H](CO)[C@@H](O)[C@H](O)[C@H]1O (stereo partly drawn) [Compound J]	2	
CC(CO)C(=O)CC[C@](C)(O[C@@H]1O[C@H](CO)[C@@H](O)[C@H](O)[C@H]1O)[C@H]1CC[C@]2(C)[C@@H]1[C@H](O)CC1[C@@]3(C)C[C@@H](O)[C@H](O[C@@H]4O[C@H](CO)[C@@H](O)[C@H](O)[C@H]4O[C@@H]4O[C@H](CO)[C@@H](O)[C@H](O)[C@H]4O)C(C)(C)C3CC[C@]12C (stereo partly drawn) [Compound K]	3	
CC(CO)C(=O)CC[C@](C)(O[C@@H]1O[C@H](CO)[C@@H](O)[C@H](O)[C@H]1O)[C@H]1CC[C@]2(C)[C@@H]1[C@H](O)CC1[C@@]3(C)C[C@@H](O)[C@H](O[C@@H]4O[C@H](CO)[C@@H](O)[C@H](O)[C@H]4O[C@@H]4O[C@H](CO)[C@@H](O)[C@H](O)[C@H]4O)C(C)(C)C3CC[C@]12C (stereo partly drawn) [Compound L]	2	
